Assays:
Lewis lung cancer = assay: Tumor inhibition in murine model with Lewis lung cancer; assay type: in vivo, C57BL/6J mice; conditions: for Tumor inhibiting rate / Tumor weight: 19th day after inoculation
[1] = mice bearing Lewis lung cancer, i.p. x 10 qd
liver cancer of mouse = conditions: cited from earlier work
[2] = test system: human leukemia HL-60 cells; conditions: cited from earlier work
tumor cell strain K256 = conditions: among dihydrobibenzyls and phenanthrenes in Dendrobium chrysotoxum; cited from earlier work
[3] = compared with 5FU; cited from earlier work
[4] = in vivo; cited from earlier work

COc1ccc(CCc2cc(OC)c(OC)c(OC)c2)cc1O [Erianin]
Tumor inhibiting rate (Lewis lung cancer; 50 mg/kg i.p. x 10 qd): 38.8% | Tumor weight (Lewis lung cancer; 50 mg/kg i.p. x 10 qd): 1.59 ± 0.26 | Tumor inhibiting rate (Lewis lung cancer; 100 mg/kg i.p. x 10 qd): 46.0% | Tumor weight (Lewis lung cancer; 100 mg/kg i.p. x 10 qd): 1.40 ± 0.31 | Tumor inhibiting rate (Lewis lung cancer; 200 mg/kg i.p. x 10 qd): 55.6% | Tumor weight (Lewis lung cancer; 200 mg/kg i.p. x 10 qd): 1.15 ± 0.14 | Result assessment of tumor inhibiting effect (Lewis lung cancer; mice bearing Lewis lung cancer, in words): quite effective | Death [1]: no death occurred | General condition of the mice (signs of toxicity) [1]: normal appetite, bright hair and free movements | tumor inhibitory rate (liver cancer of mouse): 50.82% | inhibition of growth of HL-60 cells [2]: significantly inhibited | inhibitory effect on the growth of tumor cell strain K256 (tumor cell strain K256): most active | toxic side effect [3]: far lower than 5FU

N.N.[Cl][Pt][Cl] [DDP, Cisplatin, reference compound]
Tumor inhibiting rate (Lewis lung cancer; 1 mg/kg i.p. x 10 qd): 51.4% | Tumor weight (Lewis lung cancer; 1 mg/kg i.p. x 10 qd): 1.26 ± 0.15

COc1ccc(/C=C\c2cc(OC)c(OC)c(OC)c2)cc1O [Combretastatin A-4]
LD50 [4]: 500 mg/kg

O=P1(N(CCCl)CCCl)NCCCO1 (stereo not shown) [CTX, Cyclophosphamide, reference compound]
Tumor inhibiting rate (Lewis lung cancer; 30 mg/kg i.p. x 10 qd): 63.2% | Tumor weight (Lewis lung cancer; 30 mg/kg i.p. x 10 qd): 0.96 ± 0.13 | General condition of the mice (signs of toxicity) [1]: signs of athrepsia, listlessness, and pilo-erection

— patent US20080233208A1, “USE OF ERIANIN IN PREPARING PHARMACEUTICAL FOR TREATING TUMORS” (The Jiang Cell Biomedical Research Co., Ltd., priority 2007, published 2008)
